Source: patent US20230272401A1, “COMPOSITIONS FOR FLCN GENE MODULATION AND METHODS THEREOF” (GENETIC INTELLIGENCE, INC, priority 2020, published 2023)
e = 2'-O-(2-methoxyethyl) (MOE); d = 2'-deoxy (DNA); m = 2'-O-methyl

tested on: human FLCN protein; experiment: Antisense inhibition of human FLCN in HEK293T cells, IC50 (Western blot); type: cell-based; details: 0 nM to 100 nM ASO, Lipofectamine, 2-day incubation, FLCN protein by Western blot
Excerpt: The antisense oligonucleotides listed in this example have all nucleosides linked by modified phosphorothioate backbones. Bolded nucleosides presented in Table 17 indicate nucleosides that are modified with a 2′-MOE sugar modification. Underlined nucleosides presented in Table 17 indicate non-modified DNA nucleosides (deoxynucleotides). Nucleosides that are italicized indicate nucleosides with a 2′-OMe sugar modification. GI81, GI84, GI85, GI86, GI88, GI89 and GI90 are gapped sequences comprising a central sequence of deoxynucleotides, which are flanked on both sides by wing sequences consisting of 2′-MOE modified nucleotides, wherein the second nucleotide of the central sequence from the 5′ end of the oligonucleotide contains a 2′-OMe sugar modification.
These antisense oligonucleotides were tested in the human cell line HEK293T. HEK293T cells were seeded at 400,000 cells per well in a 6-well plate. After 1 day, various concentrations of antisense oligonucleotides ranging from 0 nM to 100 nM were transfected into the cells using Lipofectamine. After a 2-day incubation period, the cells were harvested to obtain whole cell lysates. The whole cell lysates were analyzed by Western blot and probed with a FLCN-specific antibody (CST #3697). The intensity of Western blot bands were quantified by FIJI (Image J) and used to quantify the expression levels of FLCN. The relative expression values of FLCN for the different treatment groups were calculated by normalizing with their respective α-Tubulin loading control, and presented as a percentage to that of the untreated control (which in this case comprised cells not transfected with ASOs). The potencies of these antisense oligonucleotides are reported in the form of IC50 values in Table 17.

Substance	IC50
GI81: gapped phosphorothioate ASO, 2′-MOE wings, 2′-OMe at second gap nucleotide, TGGCTGATATATCCCGGG, Exon 5, SEQ ID NO 21 (sugars from the 5' end e4 d1 m1 d8 e4, all phosphorothioate, methylation of C not given here)	14 nM
GI90: gapped phosphorothioate ASO, 2′-MOE wings, 2′-OMe at second gap nucleotide, CGGGTGCCCTGCAGCAAG, Exon 5, SEQ ID NO 618 (sugars from the 5' end e4 d1 m1 d8 e4, all phosphorothioate, methylation of C not given here)	35 nM
GI88: gapped phosphorothioate ASO, 2′-MOE wings, 2′-OMe at second gap nucleotide, GCCTGGCGGACAATGCTG, Exon 5, SEQ ID NO 616 (sugars from the 5' end e4 d1 m1 d8 e4, all phosphorothioate, methylation of C not given here)	19 nM
